Drawing on patent publication US11180462B2, “Microbiocidal oxadiazole derivatives” (SYNGENTA PARTICIPATIONS AG, priority 2015, dated 2021), this text covers pest or weed control, melting point and inhibition of growth for nine compounds.

For data set [1], the system named is Puccinia recondita f. Sp. Tritici. The data set can be described thus: Fungicidal activity against Puccinia recondita f. sp. tritici / wheat / leaf disc preventative (brown rust). Type of data set: in vivo. The conditions noted are these: foliar, 200 ppm in the applied formulation, wheat leaf segments, preventative, compared to untreated control leaf disks, read-out: disease control. The essentials: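 Preventative leaf-segment test, wheat cv. Kanzler on water agar. Spray compound at 200 ppm, inoculate with spores 1 day later; 19° C., 75% rh, 12/12 h light. Read-out: % disease control vs untreated, 7 to 9 days after application.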

The test system is the same in data set [2]. The data set can be described thus: Fungicidal activity against Puccinia recondita f. sp. tritici / wheat / leaf disc curative (brown rust). Type of data set: in vivo. The conditions noted are these: foliar, 24 h, 200 ppm in the applied formulation, wheat leaf segments, curative (applied 1 day after inoculation), compared to untreated control leaf disks, read-out: disease control. An outline of the steps:
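Wheat cv. Kanzler leaf segments on agar, inoculated with rust spore suspension, kept dark at 19° C and 75% RH; formulated compound sprayed 1 day post-inoculation. Incubated 19° C, 75% RH, 12 h light/12 h dark; percent disease control vs untreated scored 6 to 8 days after application.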

Data set [3] concerns Glomerella lagenarium (Colletotrichum lagenarium). Nature of the data set: Fungicidal activity against Glomerella lagenarium (Colletotrichum lagenarium) liquid culture / cucumber / preventative (anthracnose). Type of data set: cell-based. The conditions noted are these: Colletotrichum orbiculare; 20 ppm in the applied formulation; liquid culture (PDB), growth inhibition measured photometrically after 3 to 4 days; compared to untreated control; read-out: disease control. The essentials: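 Photometric read-out of fungal growth after 2–7 days, expressed as percent antifungal activity versus untreated check. Cryo-stored conidia in PDB; compound at 20 ppm; dark, 24 °C, 96% RH.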

A further data set has as its system Phakopsora Pachyrhizi. Nature of the data set: Fungicidal activity against Phakopsora pachyrhizi / soybean / leaf disc preventative (Asian soybean rust). Type of data set: in vivo. Particulars: foliar, 200 ppm in the applied formulation, soybean leaf disks, compared to untreated control leaf disks, read-out: disease control. The essentials: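 Preventative soybean leaf-disc test: discs on water agar sprayed with diluted formulated compound, inoculated one day later with spores on the lower surface. Held 24–36 h dark at 20°C, 75% rh, then 12 h light/day; percent disease control versus untreated discs scored 12–14 days after application.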

On to `CON(Cc1ccc(-c2noc(C(F)(F)F)n2)cc1)C(=O)C(NC(=O)C1CC1)C(C)C` (stereo not drawn) [Compound 1.54, N-[1-(methoxy-[[4-[5-(trifluoromethyl)-1,2,4-oxadiazol-3-yl]phenyl]methyl]carbamoyl]-2-methyl-propyl]-cyclopropane-carboxamide], for which the melting point (commonly the temperature, or range, at which the solid turns liquid) was 104.4 to 109 °C. In data set [1], the pest or weed control at 200 ppm was ≥ 80%. Besides, the pest or weed control at 200 ppm in data set [2] is ≥ 80%. The inhibition of growth at 20 ppm in data set [3] was ≥ 80%. Besides, in the data set on Phakopsora Pachyrhizi, the pest or weed control at 200 ppm was ≥ 80%.
The compound `CON(C)C(=O)N(C)C(C#N)c1ccc(-c2noc(C(F)(F)F)n2)cc1` (stereo not drawn) [Compound 3.31, 1-[cyano-[4-[5-(trifluoromethyl)-1,2,4-oxadiazol-3-yl]phenyl]methyl]-3-methoxy-1,3-dimethyl-urea] came in with a melting point of 106 to 107 °C. The pest or weed control at 200 ppm in data set [1] was ≥ 80%. Moreover, the pest or weed control at 200 ppm in data set [2] is ≥ 80%. For the same compound, in data set [3], the inhibition of growth at 20 ppm is ≥ 80%. Besides, the pest or weed control at 200 ppm in the data set with Phakopsora Pachyrhizi was ≥ 80%.
In the case of `COC(=O)N(O)Cc1ccc(-c2noc(C(F)(F)F)n2)cc1` [Compound 2.24, methyl N-hydroxy-N-[[4-[5-(trifluoromethyl)-1,2,4-oxadiazol-3-yl]phenyl]methyl]-carbamate], the melting point was 73 to 75.1 °C. Moreover, the pest or weed control at 200 ppm in data set [1] was ≥ 80%. Further, in data set [2], the pest or weed control at 200 ppm was ≥ 80%. In addition, the inhibition of growth at 20 ppm in data set [3] is ≥ 80%. The pest or weed control at 200 ppm in the data set with Phakopsora Pachyrhizi was ≥ 80%.
`CON(Cc1ccc(-c2noc(C(F)(F)F)n2)cc1)C(=O)NC(C)C` [Compound 3.42, 3-isopropyl-1-methoxy-1-[[4-[5-(trifluoromethyl)-1,2,4-oxadiazol-3-yl]phenyl]methyl]urea] gave a melting point of 106 to 107.3 °C. The pest or weed control at 200 ppm in data set [1] was ≥ 80%. In addition, the pest or weed control at 200 ppm in data set [2] was ≥ 80%. Further, in data set [3], the inhibition of growth at 20 ppm was ≥ 80%. Besides, the pest or weed control at 200 ppm in the data set with Phakopsora Pachyrhizi was ≥ 80%.
`CON(Cc1ccc(-c2noc(C(F)(F)F)n2)cc1)C(=O)NCC(=O)N(C)C` [Compound 3.51, 2-[[methoxy-[[4-[5-(trifluoromethyl)-1,2,4-oxadiazol-3-yl]phenyl]methyl]-carbamoyl]amino]-N,N-dimethyl-acetamide] had a melting point of 98 to 101 °C. Moreover, the pest or weed control at 200 ppm in data set [1] was ≥ 80%. Besides, the pest or weed control at 200 ppm in data set [2] was ≥ 80%. Moreover, in data set [3], the inhibition of growth at 20 ppm is ≥ 80%. Besides, the pest or weed control at 200 ppm with Phakopsora Pachyrhizi is ≥ 80%.
In the case of `COCC(=O)N(Cc1ccc(-c2noc(C(F)(F)F)n2)cc1)CC(F)(F)F` [Compound 1.583, 2-methoxy-N-(2,2,2-trifluoroethyl)-N-[[4-[5-(trifluoromethyl)-1,2,4-oxadiazol-3-yl]phenyl]methyl]-acetamide], the melting point fell in the range of 92.6 to 94.3 °C. Further, the pest or weed control at 200 ppm in data set [1] was ≥ 80%. The pest or weed control at 200 ppm in data set [2] was ≥ 80%. Further, the inhibition of growth at 20 ppm in data set [3] was ≥ 80%. The pest or weed control at 200 ppm with Phakopsora Pachyrhizi was ≥ 80%.
For `CCC(=O)N(C)C(C#N)c1ccc(-c2noc(C(F)(F)F)n2)cc1` (stereo not drawn) [Compound 1.611, N-[cyano-[4-[5-(trifluoromethyl)-1,2,4-oxadiazol-3-yl]phenyl]methyl]-N-methyl-propanamide], the melting point lay within 75 to 76 °C. In addition, the pest or weed control at 200 ppm in data set [1] was ≥ 80%. Further, in data set [2], the pest or weed control at 200 ppm was ≥ 80%. Also, the inhibition of growth at 20 ppm in data set [3] is ≥ 80%. For the same compound, in the data set on Phakopsora Pachyrhizi, the pest or weed control at 200 ppm was ≥ 80%.
In the case of `CN(Cc1ccc(-c2noc(C(F)(F)F)n2)cc1)C(=O)NC1CC1` [Compound 3.56, 3-cyclopropyl-1-methyl-1-[[4-[5-(trifluoromethyl)-1,2,4-oxadiazol-3-yl]phenyl]methyl]urea], the melting point lay in the range of 113 to 121 °C. In addition, the pest or weed control at 200 ppm in data set [1] is ≥ 80%. Further, the pest or weed control at 200 ppm in data set [2] is ≥ 80%. Moreover, the inhibition of growth at 20 ppm in data set [3] is ≥ 80%. Also, in the data set on Phakopsora Pachyrhizi, the pest or weed control at 200 ppm was ≥ 80%.
Compound `CON(Cc1ccc(-c2noc(C(F)(F)F)n2)cc1)C(=O)NC1(C#N)CC1` [Compound 3.47, 3-(1-cyanocyclopropyl)-1-methoxy-1-[[4-[5-(trifluoromethyl)-1,2,4-oxadiazol-3-yl]phenyl]methyl]urea] came in with a melting point of 106 to 109 °C. In data set [1], the pest or weed control at 200 ppm was ≥ 80%. Besides, the pest or weed control at 200 ppm in data set [2] was ≥ 80%. In addition, the inhibition of growth at 20 ppm in data set [3] is ≥ 80%. Also, the pest or weed control at 200 ppm with Phakopsora Pachyrhizi is ≥ 80%.
